Measurements as given in US10780072B2, “Methods for inhibiting conversion of choline to trimethylamine (TMA)” (The Procter & Gamble Company, priority 2015, dated 2020).

System: Proteus mirabilis 29906 (Pm) lysate
Assay: Inhibition of TMA formation from choline (d9-choline to d9-TMA) in Proteus mirabilis lysate, LC-MS/MS
Assay type: biochemical
Conditions: Pm lysate 1.5 mg/mL protein, 50 μM d9-choline chloride, 37° C. for two hours; read-out: TMA Inhibition (IC50, mol/L)

Molecule	IC50 [µM]
COc1ccc(C)cc1N=C=S [Compound 1, 2-Methoxy-5-methylphenyl isothiocyanate]	745
CC(C)(C)N=C=S [Compound 2, tert-Butyl isothiocyanate]	5480
Cc1cccc(N=C=S)c1 [Compound 3, m-Tolyl isothiocyanate]	248
CSc1ccc(N=C=S)cc1 [Compound 4, 4-(Methylthio) phenyl isothiocyanate]	73.4
S=C=NCc1ccccc1 [Compound 5, Benzyl isothiocyanate]	3.03
CCCCCN=C=S [Compound 6, 1-pentyl isothiocyanate]	41.4
CCN(CC)CCCN=C=S [Compound 7, 3-(Diethyl-amino) propyl isothiocyanate]	1.56
S=C=NCC1CCCCC1 [Compound 8, Cyclohexyl- methyl isothiocyanate]	210
S=C=NCCc1ccc(Cl)cc1 [Compound 9, 2-(4-Chloro-phenethyl) isothiocyanate]	30
CCC(C)N=C=S (stereo not drawn) [Compound 10, sec-butyl isothiocyanate]	129
CC(C)CN=C=S [Compound 12, Isobutyl isothiocyanate]	74.5
CCCCN=C=S [Compound 13, Butyl isothiocyanate]	50.4
CC(C)N=C=S [Compound 15, Isopropyl isothiocyanat]	98.2
CC(C)CCN=C=S [Compound 16, 1-isothio-cyanato-3-methyl-butane]	66.1
S=C=Nc1ccccc1 [Compound 18, Phenyl isothiocyanate]	120
S=C=Nc1cccc2ccccc12 [Compound 19, 1-Naphthyl isothiocyanate]	2080
S=C=Nc1ccc(Br)cc1 [Compound 20, 4-Bromo-phenyl isothiocyanate]	88.8
O=C(N=C=S)c1ccccc1 [Compound 21, Benzoyl isothiocyanate]	196
CC(C)(C)OC(=O)NCCCCN=C=S [Compound 22, N-Boc-4-isothio-cyanatobutyl-amine]	65.2
CC(C)(C)OC(=O)Nc1ccc(N=C=S)cc1 [Compound 23, N-Boc-4-isothio-cyanatoaniline]	2530
S=C=NCCCN1CCOCC1 [Compound 24, 3-(4-Morpholino) propyl isothiocyanate]	15.7

Molecule	IC50 [µM]
S=C=NCCN1CCOCC1 [Compound 25, 2-(4-Morpholino) ethyl isothiocyanate]	13.4
C[C@H](N=C=S)c1ccccc1 [Compound 26, (S)-(+)-alpha- Methylbenzyl isothiocyanate]	20.9
S=C=Nc1ccc(Cl)cc1 [Compound 27, 4-Chloro-phenyl isothiocyanate]	108
S=C=NC1CC2CCC1C2 (stereo not drawn) [Compound 29, exo-2-Norbornyl-isothiocyanate]	48.2
S=C=NC1CCCCC1 [Compound 30, Cyclohexyl isothiocyanate]	56.1
CCc1ccc(N=C=S)cc1 [Compound 31, 4-Ethylphenyl isothiocyanate]	383
COc1ccccc1N=C=S [Compound 32, 2-Methoxy-phenyl isothiocyanate]	188
COc1ccc(OC)c(N=C=S)c1 [Compound 33, 2,5-Di-methoxy-phenyl isothiocyanate]	152
COc1cccc(N=C=S)c1 [Compound 34, 3-Methoxy-phenyl isothiocyanate]	88.3
S=C=NCCN1CCCCC1 [Compound 35, 2-Piperidino-ethyl isothiocyanate]	14.3
CCOC(=O)CN=C=S [Compound 36, Ethyl isothio- cyanato- acetate]	3.98
CCCCCC12CCC(C(=O)Oc3ccc(N=C=S)cc3)(CC1)CC2 [Compound 37, 4-Isothio-cyanato-phenyl 4-pentyl-bicyclo [2.2.2] octane-1-carboxylate]	48900
S=C=NC(c1ccccc1)c1ccccc1 [Compound 38, Benzhydryl isothiocyanate]	1560
CC(=O)O[C@H]1[C@H](OC(C)=O)[C@@H](N=C=S)OC[C@H]1OC(C)=O [Compound 39, 2,3,4-Tri-O-acetyl-α-D-arabino-pyranosyl isothiocyanate]	220
CCN(CC)CCN=C=S [Compound 40, Ethanamine, N,N-diethyl-2-isothio-cyanato]	8.81
CN(C)CCCN=C=S [Compound 41, 3-isothio-cyanato-N,N-dimethyl-1-Propanamine]	11.5
CN(C)CCN=C=S [Compound 42, 2-Isothio-cyanato-N,N-dimethyl-ethanamine]	7.67
CCC(C)CN=C=S (stereo not drawn) [Compound 44, Butane, 1-isothio-cyanato-2-methyl-]	105
C[N+](C)(C)CCN=C=S [Compound 45, 2-Isothio-cyanato-N,N,N-trimethyl-ethana-minium iodide]	1.28
Ethyl isothiocyanate [Compound 11]	28.6
Methyl isothiocyanate [Compound 14]	20
